The assay concerns the target T1, lactate dehydrogenase A (LDHA) (Homo sapiens, UniProt P00338).
T1 construct: his-tag LDHA human recombinant protein (Cat. No. 71081, BPS Bioscience)
The assay is described as follows: SPR (Biacore T200, LDHA immobilized on CM5 chip, berberine […]). The format is binding. On the technique in general: Surface plasmon resonance follows binding to a sensor surface in real time, without labels.

pKd: −log10 of the molar value.

A word on the pKd: it is −log10 of the Kd, conventionally taken in molar units. High values mean a low Kd, low ones a high Kd.

`COc1ccc2cc3[n+](cc2c1OC)CCc1cc2c(cc1-3)OCO2` [BBR, berberine] had a pKd of 5.34.

(Values after article PMC8238920, “Functional inhibition of lactate dehydrogenase suppresses pancreatic adenocarcinoma progression” (Clinical and Translational Medicine, 2021).)
